Measured values reported in US8361970B2, “Growth factor binding molecules” (University of South Florida, priority 2000, dated 2013).

Key:
B16-F10 melanoma = B16-F10 melanoma tumor growth in immune-competent mice; type: in vivo; conditions: immune-competent mouse model
[1] = system: EGF-stimulated EGFR tyrosine phosphorylation and Erk1/Erk2 activation; assay: EGF-stimulated EGFR tyrosine phosphorylation and Erk1/Erk2 activation in NIH 3T3 cells overexpressing EGFR; type: cell-based; conditions: GFB-111 at concentrations as high as 100 μM
Method: Starved NIII 3T3 cells (PDGF-BB and PDGF-AA), NIH 3T3 cells overexpressing either EGFR (EGF) or Flk-1 (VEGF) are pre-treated with the indicated concentrations of GFB-111 for 5 minutes before 10 minutes of stimulation with PDGF-BB (10 ng/ml), PDGF-AA (10 ng/ml), EGF (100 ng/ml) and VEGF (50 ng/ml). Cell lysates are run on SDS-PAGE gels, then transferred to nitrocellulose and Western blotted with anti-phosphotyrosine (4G 10) or anti-phosphorylated Erk1/Erk2 (New England Biolabs).

[2] = system: angiogenesis in DaOY tumors; assay: Angiogenesis: microvessel count in DaOY tumors; type: in vivo, nude mice
Method: (§1) On the indicated termination day of each nude mouse experiment described above, (see also Table 2), the tumors are extracted and half frozen at −70° C., and half is fixed in 10% neutral buffered formalin for 6 hrs. After fixation the tissue samples are processed into paraffin blocks. Four micrometer-thick tissue sections are obtained from the paraffin blocks and stained with hematoxylin and eosin (H&E) (Richard-Allan Scientific, Kalamazoo, Mich.) using standard histologic techniques. Tissue sections are also subjected to immunostaining for Factor VIII using the avidin biotin peroxidase complex technique (Vectastatin Elite ABC Kit, Vector, Burlingame, Calif.). Rabbit polyclonal FVIII antibody (Von Willebrand Factor, Dako Corporation, Carpinteria, Calif.) is used at 1:400 dilution, following microwave antigen retrieval (4 cycles of 5 minutes each on high in 0.1M citrate buffer).

[3] = system: Erk1/Erk2 activation in U87MG tumors; assay: Phosphorylated/activated Erk1/Erk2 in U87MG tumors in vivo; design: species or system nude mice; conditions: day 32, 100 and 200 mg per kg
Method: U87MG cells (human glioblastoma) are harvested, resuspended in PBS and injected s.c. into the right and left flank (10×10^6 cells per flank) of 8 week old female nude mice (Charles River, Wilmington, Mass.). When tumors reached about 100 mm^3, animals are dosed i.p. with 0.2 ml once daily. Control animals received a saline vehicle whereas treated animals are injected with GFB-111 (50, 100 or 200 mg/kg/day). The tumor volumes are determined by measuring the length (l) and the width (w) and calculating the volume (V=lw^2/2) as described previously. For detection of phosphorylated/activated Erk1/Erk2 in tumors in vivo, the tumors are extracted 20 min after the last GFB-111 injection on day 32, rinsed and the tissue homogenized in HEPES lysis buffer (30 mM Hepes, pH 7.5, 1% T-X-100, 10% glycerol, 10 mM NaCl, 5 mM MgCl2, 25 mM NaF, 1 mM EGTA, 2 mM Na3VO4, 10 μg/ml trypsin inhibitor, 25 μg/ml leupeptin, 10 μg/ml aprotinin, 2 mM PMSF). The lysates (50-100 μg) are electrophoresed on a 15% SDS-PAGE, transferred to nitrocellulose membranes and immunoblotted, with anti-phospho-p44/p42 MAPK (Thy202/Tyr204).

[4] = system: IGF-1 stimulated IGF-1R tyrosine phosphorylation; assay: Inhibition of IGF-1 stimulated IGFR tyrosine phosphorylation in IGFR/3T3 cells; type: cell-based; conditions: 100 μM; IGFR/3T3, IGF-1 stimulated
Method: The ability of the GFB library to block the ability of IGF-1 to stimulate the IFG-1 R tyrosine phosphorylation and MAP kinase activation is evaluated using the cell assay described above with IGF-1R/3T3 cells as target cell. […] A preferred embodiment of the invention is a compound that binds to an insulin-like growth factor-1, of the general structure III, wherein R is n-butyl, n-propyl, or benzyl, and X1, X2, X3, and X4 optionally comprise identical cyclic peptide loops of the general structure II, and wherein R1, R2, R3, and R4 are each amino acid side chains that define a tetrapeptide sequence, wherein said tetrapeptide is covalently attached at the amino and carboxy termini of said tetrapeptide to a 3-aminomethyl-5-aminobenzamide linking group.

[5] = molecular target: EGF (epidermal growth factor) (Homo sapiens, UniProt P01133); assay: Binding to EGF by gel electrophoresis
Sequence of EGF (epidermal growth factor) (P01133 971-1023 limits assumed, species assumed): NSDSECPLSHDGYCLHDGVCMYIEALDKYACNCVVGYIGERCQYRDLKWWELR

[6] = molecular target: IGF-1 (insulin-like growth factor-1) (Homo sapiens, UniProt P05019); assay: Binding to IGF-1 by gel electrophoresis
Sequence of IGF-1 (insulin-like growth factor-1) (P05019 49-118 limits assumed, species assumed): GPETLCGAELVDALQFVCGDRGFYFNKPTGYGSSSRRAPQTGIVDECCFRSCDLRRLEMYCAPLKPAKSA

IGF-1 = molecular target: T1, IGF-1 (Homo sapiens, UniProt P05019); assay: Inhibition of [125I]-IGF-1 binding to NIH 3T3 cells overexpressing IGF-1R; conditions: 10 μM
T1 construct: host or cells: NIH 3T3 cells transfected with the IGF-1R gene carry the receptor
T1 sequence (P05019 49-118 limits assumed, species assumed): as above
Method: (§2) NIH 3T3 (PDGF) or NIH 3T3 cells overexpressing either EGFR (EGF), IGFR (IGF) or Flk-1 (VEGF), are incubated with [^125I]-PDGF, [^125I]-EGF, [^125I]-IGF or [^125I]-VEGF, respectively (50,000 cpm per well) and increasing concentrations of GFB-111 or GFB-116. Cells are incubated at 4° C. for 1-3 h. After discarding media, the cells are washed 3 times with PBS and three times with Tris 25 mM pH 8.0, 1% T-X-100, 10% glycerol, 1% SDS. Lysates plus wash are counted. Excess of cold growth factors is used to obtain non-specific binding levels.
(§3) Whether GFB 111 can block [^125I]-PDGF-BB specific binding in NIH 3T3 cells is determined by pre-treatment of the PDGF-BB with increasing concentrations of GFB-111. FIG. 2C illustrates that in the absence of GFB-111, [^125I]-PDGF-BB is bound by NIH3T3 cells. However, pre-treatment with increasing concentrations of GFB-111, results in a concentration-dependent decrease in PDGF-BB binding.

[7] = system: angiogenesis in C6 tumors; assay: Angiogenesis: microvessel count in C6 tumors; type: in vivo, nude mice
Method: as §1

VEGF = molecular target: T2, VEGF (Homo sapiens, UniProt P15692); assay: Inhibition of [125I]-VEGF binding to NIH 3T3 cells overexpressing VEGFR (Flk-1)
T2 construct: host or cells: NIH 3T3 cells overexpressing Flk-1 carry the receptor
T2 sequence (P15692 27-191 isoform P15692-4, species assumed): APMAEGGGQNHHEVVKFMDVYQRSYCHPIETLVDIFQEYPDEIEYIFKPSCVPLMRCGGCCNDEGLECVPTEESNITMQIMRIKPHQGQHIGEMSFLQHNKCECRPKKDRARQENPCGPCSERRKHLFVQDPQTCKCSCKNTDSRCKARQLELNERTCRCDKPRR
Method: as §2, §3

[8] = system: HRGβ-activation of Erk1/Erk2; assay: HRGβ activation of Erk1/Erk2 in SkBr3 breast carcinoma cells overexpressing ErbB2; type: cell-based, human; conditions: concentrations as high as 100 μM
Method: In other experiments, starved NIH 3T3 cells (PDGF-AA, PDGF-BB, aFGF, bFGF), NIH 3T3 cells overexpressing EGFR. IGF-1R or Flk-1 and the human breast carcinoma SkBr3 that overexpresses ErbB2 (HRGβ) are pretreated with GFB-111 (100 μM) for 5 min before 10 min stimulation with the indicated growth factors at the concentrations shown above and aFGF (10 ng/ml), bFGF (50 ng/ml), IGF-1 (50 ng/ml) and HRGβ (10 ng/ml). Cell lysates are then immunoblotted with anti-phospho Erk1/Erk2 as described above.

Molecule	Inhibition of growth of B16-F10 melanoma (B16-F10 melanoma)	Effect on EGF-stimulated EGFR tyrosine phosphorylation and Erk1/Erk2 activation [1]	Microvessel count (Mean ± SD) 250X ([2]; DaOY tumor, 50 mpk)	Microvessel count (Mean ± SD) 400X ([2]; DaOY tumor, 50 mpk)	Inhibition of angiogenesis ([2]; DaOY tumors)	Erk1/Erk2 activation in the tumors [3]	% Inhibition at 100 μM IGF1R-Y-P [4]	Binding to EGF [5]	Binding to IGF-1 [6]	Effect on [125I]-IGF-1 binding (IGF-1)	Microvessel count (Mean ± SD) 250X ([7]; C6 tumor, 50 mpk)	Microvessel count (Mean ± SD) 400X ([7]; C6 tumor, 50 mpk)	Inhibition of angiogenesis ([7]; C6 tumors)	inhibition at 10 µM (VEGF)	HRGβ-activation of Erk1/Erk2 [8]
GKGK [GFB-116]	effective	–	–	–	–	–	–	–	–	–	–	–	–	–	–
CCCCOc1c2cc(C(=O)Nc3cc4cc(c3)C(=O)NCC(=O)N[C@@H](CC(=O)O)C(=O)NCC(=O)N[C@@H](Cc3ccc(O)cc3)C(=O)NC4)cc1Cc1cc(C(=O)Nc3cc4cc(c3)C(=O)NCC(=O)N[C@@H](CC(=O)O)C(=O)NCC(=O)N[C@@H](Cc3ccc(O)cc3)C(=O)NC4)cc(c1OCCCC)Cc1cc(C(=O)Nc3cc4cc(c3)C(=O)NCC(=O)N[C@@H](CC(=O)O)C(=O)NCC(=O)N[C@@H](Cc3ccc(O)cc3)C(=O)NC4)cc(c1OCCCC)Cc1cc(C(=O)Nc3cc4cc(c3)C(=O)NCC(=O)N[C@@H](CC(=O)O)C(=O)NCC(=O)N[C@@H](Cc3ccc(O)cc3)C(=O)NC4)cc(c1OCCCC)C2 [GFB-111]	–	does not affect	7.20 ± 2.52	4.80 ± 1.37	no effect	blocked	−12.4%	does not bind	does not bind	lack of significant effects	14.27 ± 4.79	7.97 ± 2.83	to a lesser degree	50%	minimally affected
